Here are results for 22 compounds from patent publication US10662204B2 (PFIZER INC., priority 2018, dated 2020).

In one assay the target is KRAS G12C (Homo sapiens, UniProt P01116, G12C). The assay can be described thus: Cell Activity Assay: accumulation of GDP-bound KRAS G12C in MIAPaCa-2 cells (Raf-1 RBD capture, MSD readout). Format: cell-based. Details: endogenous in cells; host or cells: MIAPaCa-2. Particulars: 6 hours, assay limit is 30.00. The method in brief:
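IC50 came from a 4-parameter fit of Ras signal normalized between DMSO and full-inhibition controls. Readout: lysate GTP-Ras bound to immobilized Raf-1 RBD, quantified with pan-Ras antibody and MSD electrochemiluminescence. Lysates derived from MIAPaCa-2 cells treated 6 h with serially diluted compound, 0.3% DMSO.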

Assay [1] concerns the target T1, GDP-loaded KRAS (1-169) G12C, C51S, C80L, C118S (Homo sapiens, UniProt P01116, C118S/C51S/C80L/G12C).
T1 construct: GDP-loaded KRAS (1-169) G12C, C51S, C80L, C118S
The assay can be described thus: Mass Spectrometry Reactivity Assay (MSRA): covalent adduct of compound and KRAS G12C, Percent Modification. Format: binding. The conditions noted are these: for MSRA (% modification) 10 μM 0.25 hr / MSRA (% modification) 10 μM 0.50 hr: 10 μM compound; for MSRA (% modification) 5.0 μM 0.25 hr: 5.0 μM compound. The method in brief:
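Covalent labelling is measured by intact mass: deconvoluted modified and unmodified peak intensities yield percent modification. Compound, usually 5 μM or 10 μM final, reacts at room temperature with 5 μM GDP-bound KRAS G12C (1-169, C51S/C80L/C118S) in Hepes pH 7.5/NaCl/glycerol, sampled at 1, 15, 30, 60 min.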

What is called IC50 is the point on the concentration scale where inhibition reaches its midpoint. Consider `C=CC(=O)N1CCN(c2nc(OC[C@@H]3CCCN3C)nc3c(Oc4c(Cl)c(F)cc5[nH]ncc45)nc(Cl)cc23)C[C@@H]1C` [Example 07G, 1-[(2S)-4-(6-chloro-8-[(5-chloro-6-fluoro-1H-indazol-4-yl)oxy]-2-{[(2S)-1-methylpyrrolidin-2-yl]methoxy}pyrido[3,4-d]pyrimidin-4-yl)-2-methylpiperazin-1-yl]prop-2-en-1-one], for which, at KRAS G12C, half-maximal inhibition (IC50) was put at 0.404 µM. Moreover, in assay [1], the “MSRA (% modification) 10 μM 0.25 hr” value worked out at 77%.

For the compound `C=CC(=O)N1CCN(c2nc(OCc3cccnc3)nc3c(Oc4c(Cl)c(F)cc5[nH]ncc45)nccc23)CC1` [Example 07H, 1-(4-{8-[(5-chloro-6-fluoro-1H-indazol-4-yl)oxy]-2-(pyridin-3-ylmethoxy)pyrido[3,4-d]pyrimidin-4-yl}piperazin-1-yl)prop-2-en-1-one], the IC50 at KRAS G12C was found to be 0.285 µM. Further, in assay [1], the “MSRA (% modification) 5.0 μM 0.25 hr” value amounted to 66% and the “MSRA (% modification) 10 μM 0.25 hr” value is given as 77%.

On to `C=CC(=O)N1CCN(c2nc(Oc3cccnc3C(F)(F)F)nc3c(Oc4c(Cl)c(F)cc5[nH]ncc45)nccc23)CC1` [Example 07I, 1-[4-(8-[(5-chloro-6-fluoro-1H-indazol-4-yl)oxy]-2-{[2-(trifluoro-methyl)pyridin-3-yl]oxy}pyrido [3,4-s]pyrimidin-4-yl)piperazin-1-yl]prop-2-en-1-one], for which the half-maximal inhibitory concentration (IC50) at KRAS G12C turned out to be 0.331 µM. In assay [1], the “MSRA (% modification) 5.0 μM 0.25 hr” value is given as 46%.

Consider `C=CC(=O)N1CCN(c2ncnc3c(Oc4c(F)ccc5[nH]ncc45)nccc23)CC1` [Example 08A, 1-(4-{8-[(5-fluoro-1H-indazol-4-yl)oxy]pyrido[3,4-d]pyrimidin-4-yl}piperazin-1-yl)prop-2-en-1-one], for which, at KRAS G12C, the 50% inhibitory concentration (IC50) turned out to be 11.1 µM. Besides, the “MSRA (% modification) 10 μM 0.50 hr” value in assay [1] was determined as 6%.

Compound `C=CC(=O)N1CCN(c2nc(OC[C@@H]3CCCN3C)nc3c(Oc4c(C)ccc5[nH]ncc45)nccc23)CC1` [Example 08B, 1-[4-(8-[(5-methyl-1H-indazol-4-yl)oxy]-2-{[(2S)-1-methylpyrrolidin-2-yl]methoxy}pyrido[3,4-d]pyrimidin-4-yl)piperazin-1-yl]prop-2-en-1-one] registered an IC50 on KRAS G12C of 2.56 µM. Besides, in assay [1], the “MSRA (% modification) 10 μM 0.25 hr” value amounted to 44%.

The compound `C=CC(=O)N1CCN(c2ncnc3c(Oc4c(Cl)ccc5[nH]ncc45)cccc23)CC1` [Example 08C, 1-(4-{8-[(5-chloro-1H-indazol-4-yl)oxy]quinazolin-4-yl}piperazin-1-yl)prop-2-en-1-one] displayed an IC50 against KRAS G12C of 2.98 µM. Besides, the “MSRA (% modification) 10 μM 0.50 hr” value in assay [1] is reported as 29%.

At KRAS G12C, `C=CC(=O)N1CCN(c2nc(N3CC[C@H](N(C)C)C3)nc3c(Oc4c(C)ccc5[nH]ncc45)cccc23)CC1` [Example 08E] yielded an IC50 of 10.7 µM. In addition, in assay [1], the “MSRA (% modification) 10 μM 0.50 hr” value turned out to be 25%.

With `C=CC(=O)N1CCN(c2nc(O[C@H]3Cc4nccn4C3)nc3c(Oc4c(C)ccc5[nH]ncc45)cccc23)CC1` [Example 08F, 1-(4-{2-[(6S)-6,7-dihydro-5H-pyrrolo[1,2-a]imidazol-6-yloxy]-8-[(5-methyl-1H-indazol-4-yl)oxy]quinazolin-4-yl}piperazin-1-yl)prop-2-en-1-one], the half-inhibitory concentration (IC50) at KRAS G12C stood at 1.6 µM. In assay [1], the “MSRA (% modification) 10 μM 0.25 hr” value came out at 58% and the “MSRA (% modification) 10 μM 0.50 hr” value was 72%.

At KRAS G12C, `C=CC(=O)N1CCN(c2nc(OC[C@H]3COCCN3C)nc3c(Oc4c(Cl)c(F)cc5[nH]ncc45)nc(Cl)cc23)CC1` [Example 08G, 1-[4-(6-chloro-8-[(5-chloro-6-fluoro-1H-indazol-4-yl)oxy]-2-{[(3R)-4-methylmorpholin-3-yl]methoxy}pyrido[3,4-d]pyrimidin-4-yl)piperazin-1-yl]prop-2-en-1-one] returned an IC50 of 0.148 µM. Also, the “MSRA (% modification) 10 μM 0.25 hr” value in assay [1] is recorded as 80%.

On KRAS G12C, `C=CC(=O)N1CCN(c2nc(OCc3ccccn3)nc3c(Oc4c(Cl)c(F)cc5[nH]ncc45)nccc23)CC1` [Example 08H, 1-(4-{8-[(5-chloro-6-fluoro-1H-indazol-4-yl)oxy]-2-(pyridin-2-ylmethoxy)pyrido[3,4-d]pyrimidin-4-yl}piperazin-1-yl)prop-2-en-1-one] returned a half-maximal inhibitory concentration (IC50) of 0.491 µM. Further, the “MSRA (% modification) 5.0 μM 0.25 hr” value in assay [1] is 36%.

Turning to `C=CC(=O)N1CCN(c2nc(Oc3cccnc3OC)nc3c(Oc4c(Cl)c(F)cc5[nH]ncc45)nccc23)CC1` [Example 08I, 1-(4-{8-[(5-chloro-6-fluoro-1H-indazol-4-yl)oxy]-2-[(2-methoxy-pyridin-3-yl)oxy]pyrido [3,4-d]pyrimidin-4-yl}piperazin-1-yl)prop-2-en-1-one], the half-inhibitory concentration (IC50) against KRAS G12C was found to be 0.265 µM. The “MSRA (% modification) 5.0 μM 0.25 hr” value in assay [1] is 65%.

Compound `C=CC(=O)N1CCN(c2ncnc3c(Oc4c(C)ccc5[nH]ncc45)nc(Cl)cc23)CC1` [Example 09A, 1-(4-{6-chloro-8-[(5-methyl-1H-indazol-4-yl)oxy]pyrido[3,4-d]pyrimidin-4-yl}piperazin-1-yl)prop-2-en-1-one] registered an IC50 on KRAS G12C of 1.87 µM. Besides, the “MSRA (% modification) 10 μM 0.50 hr” value in assay [1] is on record as 38%.

For the compound `C=CC(=O)N1CCN(c2nc(OC[C@H]3CCCN3C)nc3c(Oc4c(C)ccc5[nH]ncc45)nccc23)CC1` [Example 09B, 1-[4-(8-[(5-methyl-1H-indazol-4-yl)oxy]-2-{[(2R)-1-methylpyrrolidin-2-yl]methoxy}pyrido[3,4-d]pyrimidin-4-yl)piperazin-1-yl]prop-2-en-1-one], it took 3.1 µM to reach half-maximal inhibition on KRAS G12C (IC50). The “MSRA (% modification) 10 μM 0.25 hr” value in assay [1] was 43%.

In turn, `C=CC(=O)N1CCN(c2ncnc3c(Oc4c(Cl)ccc5[nH]ncc45)cccc23)[C@@H](C)C1` [Example 09C, 1-[(3S)-4-{8-[(5-chloro-1H-indazol-4-yl)oxy]quinazolin-4-yl}-3-methylpiperazin-1-yl]prop-2-en-1-one] displayed an IC50 on KRAS G12C of 2.87 µM. For the same compound, the “MSRA (% modification) 10 μM 0.50 hr” value in assay [1] is 34%.

In the case of `C=CC(=O)N1CCN(c2nc(N3CC[C@@H](N(C)C)C3)nc3c(Oc4c(C)ccc5[nH]ncc45)cccc23)CC1` [Example 09E, 1-(4-{2-[(3R)-3-(dimethylamino)pyrrolidin-1-yl]-8-[(5-methyl-1H-indazol-4-yl)oxy]quinazolin-4-yl}piperazin-1-yl)prop-2-en-1-one], the 50% inhibitory concentration (IC50) on KRAS G12C is 7.4 µM. In addition, in assay [1], the “MSRA (% modification) 10 μM 0.50 hr” value was found to be 24%.

Compound `C=CC(=O)N1CCN(c2nc(OCCc3ncc[nH]3)nc3c(Oc4c(C)ccc5[nH]ncc45)cccc23)CC1` [Example 09F, 1-(4-{2-[2-(1H-imidazol-2-yl)ethoxy]-8-[(5-methyl-1H-indazol-4-yl)oxy]quinazolin-4-yl}piperazin-1-yl)prop-2-en-1-one] had an IC50 on KRAS G12C of 3 µM. Further, in assay [1], the “MSRA (% modification) 10 μM 0.25 hr” value came to 64% and the “MSRA (% modification) 10 μM 0.50 hr” value is on record as 75%.

Regarding `C=CC(=O)N1CCN(c2nc(OC[C@@H]3CCCN3C)nc3c(Oc4c(Cl)c(C)cc5[nH]ncc45)nccc23)CC1` [Example 09H, 1-[4-(8-[(5-chloro-6-methyl-1H-indazol-4-yl)oxy]-2-{[(2S)-1-methylpyrrolidin-2-yl]methoxy}pyrido[3,4-d]pyrimidin-4-yl)piperazin-1-yl]prop-2-en-1-one], the half-maximal inhibitory concentration (IC50) on KRAS G12C turned out to be 0.239 µM. In assay [1], the “MSRA (% modification) 5.0 μM 0.25 hr” value came out at 78%, the “MSRA (% modification) 10 μM 0.25 hr” value is listed as 81% and the “MSRA (% modification) 10 μM 0.50 hr” value is 83%.

Consider `C=CC(=O)N1CCN(c2nc(Oc3cnn(C)c3)nc3c(Oc4c(Cl)c(F)cc5[nH]ncc45)nccc23)CC1` [Example 09I, 1-(4-{8-[(5-chloro-6-fluoro-1H-indazol-4-yl)oxy]-2-[(1-methyl-1H-pyrazol-4-yl)oxy]pyrido [3,4-d]pyrimidin-4-yl}piperazin-1-yl)prop-2-en-1-one], for which, at KRAS G12C, half-maximal inhibition (IC50) was put at 0.398 µM. Further, in assay [1], the “MSRA (% modification) 5.0 μM 0.25 hr” value was 44%.

With `C=CC(=O)N1CCN(c2ncnc3c(Oc4c(C)ccc5[nH]ncc45)nccc23)[C@@H](C)C1` [Example 10A, 1-[(3S)-3-methyl-4-{8-[(5-methyl-1H-indazol-4-yl)oxy]pyrido[3,4-d]pyrimidin-4-yl}piperazin-1-yl]prop-2-en-1-one], it took 7.5 µM to reach half-maximal inhibition at KRAS G12C (IC50). Further, the “MSRA (% modification) 10 μM 0.50 hr” value in assay [1] stood at 10%.

For `C=CC(=O)N1CCN(c2nc(OC[C@@H]3CCN(C)C3)nc3c(Oc4c(C)ccc5[nH]ncc45)nccc23)CC1` [Example 10B, 1-[4-(8-[(5-methyl-1H-indazol-4-yl)oxy]-2-{[(3R)-1-methylpyrrolidin-3-yl]methoxy}pyrido[3,4-d]pyrimidin-4-yl)piperazin-1-yl]prop-2-en-1-one], the half-inhibitory concentration (IC50) against KRAS G12C was determined as 13.4 µM. For the same compound, the “MSRA (% modification) 10 μM 0.25 hr” value in assay [1] is given as 60%.

As for `C=CC(=O)N1CCN(c2ncnc3c(Oc4c(C)ccc5[nH]ncc45)cccc23)[C@@H](C)C1` [Example 10C, 1-[(3S)-3-methyl-4-{8-[(5-methyl-1H-indazol-4-yl)oxy]quinazolin-4-yl}piperazin-1-yl]prop-2-en-1-one], the IC50 against KRAS G12C is 5.21 µM. Moreover, the “MSRA (% modification) 10 μM 0.50 hr” value in assay [1] came out at 27%.

`C=CC(=O)N1CCN(c2nc(N3CC(CN(C)C)C3)nc3c(Oc4c(C)ccc5[nH]ncc45)cccc23)CC1` [Example 10E, 1-[4-(2-{3-[(dimethylamino)methyl]azetidin-1-yl}-8-[(5-methyl-1H-indazol-4-yl)oxy]quinazolin-4-yl)piperazin-1-yl]prop-2-en-1-one] displayed an IC50 at KRAS G12C of 2.32 µM. Moreover, in assay [1], the “MSRA (% modification) 10 μM 0.50 hr” value was determined as 21%.
